Results taken from patent US11566057B2, “Long-acting co-agonists of the glucagon and GLP-1 receptors” (Merck Sharp & Dohme Corp., priority 2017, dated 2023).
Where two headings read alike, the source gives them in different places. Numbered stars: 1 amine (or outer) side, 2 acyl side, 3 side chain; on linkers, the order of the positions; unused ones are H or OH. Square brackets hold non-standard residues; d marks the D form. Side chains are listed from the residue outwards. Peptide text beside a SMILES is read from it. * marks the point of attachment. C20 diacid = O=C(O)CCCCCCCCCCCCCCCCCCC(=O)*; C18 diacid = O=C(O)CCCCCCCCCCCCCCCCC(=O)*; γGlu = O=C(O)[C@H](CCC(=O)[*:2])N[*:1]; Met(O2) = CS(=O)(=O)CC[C@H](N)C(=O)O; αMeD = C[C@](N)(CC(=O)O)C(=O)O; AEEA = NCCOCCOCC(=O)O; Aib = CC(C)(N)C(=O)O

Experiments:
human GCGR = target: T1, human GCGR (Homo sapiens, UniProt P47871); assay: cAMP activity assay at the Glucagon receptor (GCGR); assay type: cell-based; details: for hGCGR/hGLP1R (hTone): ratio of GCGR EC50 to GLP1R EC50
T1 construct: expressed in transfected cells; growth medium holds Blasticidin and Hygromycin
Summary of the method: (§1)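 Peptides serially diluted from DMSO (10 points) and added to frozen-stock cells bearing human GLP1R (10,000 cells/well) or GCGR (30,000 cells/well), 1 h at RT, dark. EC50 by four-parameter logistic fit of HitHunter cAMPXS luminescence, read following overnight RT incubation.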

human GLP1R = target: T2, human GLP1R (Homo sapiens, UniProt P43220); assay: cAMP activity assay at the GLP-1 receptor (GLP1R); assay type: cell-based
T2 construct: expressed in transfected cells; growth medium holds Blasticidin and Hygromycin
Summary of the method: as §1

[1] = summary statement: EC50 at each of the glucagon and GLP-1 receptors, read-out: EC50 at the glucagon receptor
[2] = summary statement: EC50 at each of the glucagon and GLP-1 receptors, read-out: EC50 at the GLP-1 receptor

T1 sequence (P47871 26-477): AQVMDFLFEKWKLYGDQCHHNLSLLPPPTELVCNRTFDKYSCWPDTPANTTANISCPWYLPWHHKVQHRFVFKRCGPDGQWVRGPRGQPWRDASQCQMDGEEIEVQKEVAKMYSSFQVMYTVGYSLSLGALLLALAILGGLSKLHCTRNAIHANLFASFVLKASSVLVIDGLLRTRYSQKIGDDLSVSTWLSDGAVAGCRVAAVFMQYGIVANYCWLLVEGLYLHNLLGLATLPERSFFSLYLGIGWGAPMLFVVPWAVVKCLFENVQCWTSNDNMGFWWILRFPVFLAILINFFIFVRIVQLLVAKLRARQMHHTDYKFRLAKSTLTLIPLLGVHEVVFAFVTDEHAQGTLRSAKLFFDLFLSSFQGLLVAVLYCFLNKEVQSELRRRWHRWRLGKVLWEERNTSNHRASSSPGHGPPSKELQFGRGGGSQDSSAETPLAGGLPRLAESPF
T2 sequence (P43220 24-463): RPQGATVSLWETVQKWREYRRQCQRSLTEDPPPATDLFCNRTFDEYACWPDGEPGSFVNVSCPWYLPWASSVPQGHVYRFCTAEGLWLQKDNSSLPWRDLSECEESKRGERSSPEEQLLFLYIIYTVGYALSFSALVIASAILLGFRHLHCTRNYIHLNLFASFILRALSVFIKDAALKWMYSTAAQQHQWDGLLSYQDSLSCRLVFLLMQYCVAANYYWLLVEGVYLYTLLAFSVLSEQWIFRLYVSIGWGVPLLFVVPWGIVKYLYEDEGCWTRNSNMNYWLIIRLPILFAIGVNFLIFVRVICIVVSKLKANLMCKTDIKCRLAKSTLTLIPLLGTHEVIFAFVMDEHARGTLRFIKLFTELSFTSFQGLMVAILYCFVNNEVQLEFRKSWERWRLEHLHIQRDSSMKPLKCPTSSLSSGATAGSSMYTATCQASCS

| EC50 (human GCGR; cells expressing human GCGR, cAMP production, buffer with or without 20% human serum (not stated which), read-out: GCGR EC50 human) | hGCGR/hGLP1R (hTone) (human GCGR) | EC50 (human GCGR; [1]) | EC50 (human GLP1R; [2]) | EC50 (human GLP1R; cells expressing human GLP1R, cAMP production, buffer with or without 20% human serum (not stated which), read-out: GLP1R EC50 human) | Compound |
| --- | --- | --- | --- | --- | --- |
| 4.95 nM | 1.9 | < 5 nM | < 5 nM | – | CC(C)C[C@H](NC(=O)[C@H](Cc1ccc(O)cc1)NC(=O)[C@H](CCCCN)NC(=O)[C@H](CO)NC(=O)[C@H](Cc1ccc(O)cc1)NC(=O)[C@H](CC(=O)O)NC(=O)[C@H](CO)NC(=O)[C@@H](NC(=O)[C@H](Cc1ccccc1)NC(=O)[C@@H](NC(=O)CNC(=O)[C@H](CCC(N)=O)NC(=O)C(C)(C)NC(=O)[C@@H](N)Cc1c[nH]cn1)[C@@H](C)O)[C@@H](C)O)C(=O)N[C@@H](CC(=O)O)C(=O)N[C@@H](C)C(=O)N[C@@H](CCCNC(=N)N)C(=O)N[C@@H](C)C(=O)N[C@@H](C)C(=O)N[C@@H](CCCCNC(=O)COCCOCCNC(=O)COCCOCCNC(=O)CC[C@H](NC(=O)CCCCCCCCCCCCCCCCCCC(=O)O)C(=O)O)C(=O)N[C@@](C)(CC(=O)O)C(=O)N[C@@H](Cc1ccccc1)C(=O)N[C@H](C(=O)N[C@@H](CCC(N)=O)C(=O)N[C@@H](Cc1c[nH]c2ccccc12)C(=O)N[C@@H](CC(C)C)C(=O)N[C@@H](CCS(C)(=O)=O)C(=O)N[C@@H](CC(=O)O)C(=O)N[C@H](C(N)=O)[C@@H](C)O)C(C)C [TP594] (H-H[Aib]QGTFTSDYSKYLDARAAK([AEEA-AEEA-γGlu-C20 diacid])[αMeD]FVQWL[Met(O2)]DT-NH2; N-terminus assumed) |
| – | <0.41 | < 5 nM | < 5 nM | 4.95 nM | CC(C)C[C@H](NC(=O)[C@H](Cc1c[nH]c2ccccc12)NC(=O)[C@H](CCC(N)=O)NC(=O)[C@@H](NC(=O)[C@H](Cc1ccccc1)NC(=O)[C@](C)(CC(=O)O)NC(=O)[C@H](CCCCNC(=O)COCCOCCNC(=O)COCCOCCNC(=O)CC[C@H](NC(=O)CCCCCCCCCCCCCCCCC(=O)O)C(=O)O)NC(=O)[C@H](C)NC(=O)[C@H](C)NC(=O)[C@H](CCCNC(=N)N)NC(=O)[C@H](C)NC(=O)[C@](C)(CC(=O)O)NC(=O)[C@H](CC(C)C)NC(=O)[C@H](Cc1ccc(O)cc1)NC(=O)[C@H](CCCCN)NC(=O)[C@H](CO)NC(=O)[C@H](Cc1ccc(O)cc1)NC(=O)[C@H](CC(=O)O)NC(=O)[C@H](CO)NC(=O)[C@@H](NC(=O)[C@H](Cc1ccccc1)NC(=O)[C@@H](NC(=O)CNC(=O)[C@H](CCC(N)=O)NC(=O)C(C)(C)NC(=O)[C@@H](N)Cc1c[nH]cn1)[C@@H](C)O)[C@@H](C)O)C(C)C)C(=O)N[C@@H](CCS(C)(=O)=O)C(=O)N[C@@](C)(CC(=O)O)C(=O)N[C@H](C(N)=O)[C@@H](C)O [TP612] (H-H[Aib]QGTFTSDYSKYL[αMeD]ARAAK([AEEA-AEEA-γGlu-C18 diacid])[αMeD]FVQWL[Met(O2)][αMeD]T-NH2; N-terminus assumed) |
| – | 0.6 | < 5 nM | < 5 nM | – | CC(C)C[C@H](NC(=O)[C@H](Cc1c[nH]c2ccccc12)NC(=O)[C@H](CCCCNC(=O)COCCOCCNC(=O)COCCOCCNC(=O)CC[C@H](NC(=O)CCCCCCCCCCCCCCCCC(=O)O)C(=O)O)NC(=O)[C@@H](NC(=O)[C@H](Cc1ccccc1)NC(=O)[C@H](CC(=O)O)NC(=O)[C@H](CCC(N)=O)NC(=O)[C@H](C)NC(=O)[C@H](C)NC(=O)[C@H](CCCNC(=N)N)NC(=O)C(C)(C)NC(=O)[C@H](CC(=O)O)NC(=O)[C@H](CC(C)C)NC(=O)[C@H](Cc1ccc(O)cc1)NC(=O)[C@H](CCCCN)NC(=O)[C@H](CO)NC(=O)[C@H](Cc1ccc(O)cc1)NC(=O)[C@H](CC(=O)O)NC(=O)[C@H](CO)NC(=O)[C@@H](NC(=O)[C@H](Cc1ccccc1)NC(=O)[C@@H](NC(=O)CNC(=O)[C@H](CCC(N)=O)NC(=O)C(C)(C)NC(=O)[C@@H](N)Cc1c[nH]cn1)[C@@H](C)O)[C@@H](C)O)C(C)C)C(=O)N[C@@H](CCS(C)(=O)=O)C(=O)N[C@@H](CC(=O)O)C(=O)N[C@H](C(=O)O)[C@@H](C)O [TP737] (H-H[Aib]QGTFTSDYSKYLD[Aib]RAAQDFVK([AEEA-AEEA-γGlu-C18 diacid])WL[Met(O2)]DT-OH; N-terminus assumed) |
